Reference: patent publication US9597314B2, “Beta-lactamylalkanoic acids for treating premenstrual disorders” (AZEVAN PHARMACEUTICALS, INC., priority 2005, dated 2017)
pKi: −log10 of the molar value.

Assays:
vasopressin V1a receptor = molecular target: T1, vasopressin V1a receptor (Homo sapiens, UniProt P37288); assay: Inhibition of phosphatidylinositol turnover; assay type: cell-based; details: vasopressin-mediated turnover of phosphatidylinositol, hV1a cells
T1 construct: host or cells: CHO cells (hV1a cell line), whole adherent cells
Excerpt: Inhibition of phosphatidylinositol turnover. The physiological effects of vasopressin are mediated through specific G-protein coupled receptors. The vasopressin V1a receptor is coupled to the Gq/G11 family of G proteins and mediates phosphatidylinositol turnover. The agonist or antagonist character of the compounds of the invention may be determined by their ability to inhibit vasopressin-mediated turnover of phosphatidylinositol by the procedure described in the following paragraphs.
Cell culture and labeling of cells. Three days prior to the assay, near-confluent cultures of hV1a cells were dissociated and seeded in 6-well tissue culture plates, about 100 wells being seeded from each 75 cm^2 flask (equivalent to 12:1 split ratio).
Incubations. All assays were in triplicate except for basal and 10 nM AVP (both n=6). AVP ((arginine vasopressin), Peninsula Labs, Belmont, Calif., USA (#8103)) was dissolved in 0.1N acetic acid. Test agents were dissolved in DMSO and diluted in DMSO to 200 times the final test concentration. […] The order of incubations was randomized. Incubations were initiated by removing the prelabeling medium, washing the monolayer once with 1 mL of 0.9% NaCl, and transferring the contents of the assay tubes to corresponding wells. The plates were incubated for 1 hour at 37° C. Incubations were terminated by removing the incubation medium and adding 500 μL of ice cold 5% (w/v) trichloroacetic acid and allowing the wells to stand for 15 min.
Measurement of [^3H]inositol phosphates. BioRad Poly-Prep Econo-Columns were packed with 0.3 mL of AG 1 X-8 100-200 formate form resin. Resin was mixed 1:1 with water and 0.6 mL added to each column. Columns were then washed with 10 mL water. Scintillation vials (20 mL) were placed under each column. For each well, the contents were transferred to a minicolumn, after which the well was washed with 0.5 mL distilled water, which was also added to the minicolumn. The columns were then washed twice with 5 mL of 5 mM myo-inositol to elute free inositol. Aliquots (1 mL) were transferred to 20 mL scintillation vials and 10 mL of Beckman Ready Protein Plus added. After the myo-inositol wash was complete, empty scintillation vials were placed under the columns, and [^3H]inositol phosphates were eluted with three additions of 1 mL 0.5 M ammonium formate containing 0.1 N formic acid. Elution conditions were optimized to recover inositol mono-, bis-, and trisphosphates, without eluting the more metabolically inert tetrakis-, pentakis-, and hexakis-phosphates. To each sample was added 10 mL of a high salt capacity scintillation fluid such as Tru-Count High Salt Capacity or Packard Hionic-Fluor. Inositol lipids were measured by adding 1 mL of 2% sodium dodecyl sulfate (SDS) to each well, allowing the wells to stand for at least 30 min., and transferring the solution to 20 mL scintillation vials, to which 10 mL Beckman Ready Protein Plus scintillation fluid was then added. Samples were counted in a Beckman LS 3801 liquid scintillation counter for 10 min. Total inositol incorporation for each well was calculated as the sum of free inositol, inositol phosphates, and inositol lipids.
Data analysis: concentration-inhibition experiments. Concentration-response curves for AVP and concentration-inhibition curves for test agents versus 10 nM AVP were analyzed by nonlinear least-squares curve-fitting to a 4-parameter logistic function. Parameters for basal and maximal inositol phosphates, EC50 or IC50, and Hill coefficient were varied to achieve the best fit. The curve-fitting was weighted under the assumption that the standard deviation was proportional to dpm of radioactivity. Full concentration-response curves for AVP were run in each experiment, and IC50 values were converted to Ki values by application of the Cheng-Prusoff equation, based on the EC50 for AVP in the same experiment. Inositol phosphates were expressed as dpm per 10^6 dpm of total inositol incorporation.

V1a [1] = molecular target: T2, V1a (Homo sapiens, UniProt P37288); assay: Human vasopression V1a receptor binding assay; parameters: host or cells: CHO cells (hV1a cell line), whole adherent cells; details: hV1a cell line (CHO); for pKi: Table 18; for IC50: 1 nM 3H-AVP, Table 17, read-out: V1a Binding Affinity (IC50 (nM))
How it was run: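 Whole CHO cells stably expressing human V1a receptor competed 1 nM 3H-AVP against 10-fold serial compound dilutions (DMSO) in pH 7.0 Hepes/BSA/DMEM buffer, 45 min at 37° C.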

V1a [2] = molecular target: T2, V1a; parameters: host or cells: human subjects (in vivo); details: oral, subjects 18-35 years; cited from earlier work

T2 sequence (P37288 whole entry): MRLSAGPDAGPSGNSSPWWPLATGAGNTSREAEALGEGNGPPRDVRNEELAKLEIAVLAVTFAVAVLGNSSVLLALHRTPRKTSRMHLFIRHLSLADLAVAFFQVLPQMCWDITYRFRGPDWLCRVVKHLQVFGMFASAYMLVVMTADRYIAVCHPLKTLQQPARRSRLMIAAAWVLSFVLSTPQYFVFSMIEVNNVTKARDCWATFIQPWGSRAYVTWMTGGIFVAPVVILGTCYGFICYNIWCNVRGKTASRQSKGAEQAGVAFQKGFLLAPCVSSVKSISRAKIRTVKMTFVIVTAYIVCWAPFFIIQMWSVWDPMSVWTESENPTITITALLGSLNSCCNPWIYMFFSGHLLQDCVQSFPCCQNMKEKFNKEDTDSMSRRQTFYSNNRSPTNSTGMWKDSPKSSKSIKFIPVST
T1 sequence (P37288 whole entry): as above

agonist or antagonist character (vasopressin V1a receptor) | pKi (V1a [1]) | IC50 (V1a [1]) | Compound | reduction in pain across three menstrual cycles (V1a [2])
– | 9.44 | 0.59 nM | CN(Cc1cccc(Cl)c1Cl)C(=O)[C@H](CCC(=O)N1CCN(C2CCCCC2)CC1)N1C(=O)[C@@H](N2C(=O)OC[C@@H]2c2ccccc2)[C@H]1/C=C/c1ccccc1 [Example 221B] | –
– | 8.26 | 9 nM | (2S)-[(4-cyclohexylpiperazinyl)carbonylethyl]-2-[3(S)-(4(S)-phenyloxazolidin-2-on-3-yl)-4(R)-(2-phenyleth-1-yl)azetidin-2-on-1-yl]acetic acid N—[(R)-1,2,3,4-tetrahydronaphth-1-yl]amide [Example 236A] | –
– | 8.11 | 12.7 nM | CCCCN1CCN(C(=O)CC[C@@H](C(=O)NCc2cccc(C(F)(F)F)c2)N2C(=O)C(N3C(=O)OC[C@@H]3c3ccccc3)C2/C(Br)=C/c2ccccc2)CC1 (some centres unmarked) [Example 230L] | –
– | 8.43 | 6 nM | O=C(NCc1cccc(C(F)(F)F)c1)[C@@H](CC(=O)N1CCC(CN2CCCCC2)CC1)N1C(=O)[C@@H](N2C(=O)OC[C@@H]2c2ccccc2)[C@H]1/C=C/c1ccccc1 [Example 134G] | –
– | 8.96 | 1.7 nM | O=C(NC1Cc2ccccc2C1)[C@H](CCC(=O)N1CCN(C2CCCCC2)CC1)N1C(=O)[C@@H](N2C(=O)OC[C@@H]2c2ccccc2)[C@H]1/C=C/c1ccccc1 [Example 221P] | –
– | 8.22 | 9.79 nM | O=C(NCc1cccc(C(F)(F)F)c1)[C@H](CC(=O)N1CCC(CCN2CCCCC2)CC1)N1C(=O)[C@@H](N2C(=O)OC[C@@H]2c2ccccc2)[C@H]1/C=C/c1ccccc1 [Example 86A] | –
– | – | < 10 nM | CCCCN1CCN(C(=O)CC[C@@H](C(=O)NCc2cccc(C(F)(F)F)c2)N2C(=O)[C@@H](N3C(=O)OC[C@@H]3c3ccccc3)[C@H]2/C=C/c2ccccc2)CC1 [Example 221AB] | –

The remaining lines, values behind:

Compound | agonist or antagonist character (vasopressin V1a receptor) | pKi (V1a [1]) | IC50 (V1a [1]) | reduction in pain across three menstrual cycles (V1a [2])
O=C(NCc1cccc(C(F)(F)F)c1)C(CCC(=O)N1CCN(C2CCCCC2)CC1)N1C(=O)C(N2C(=O)OCC2c2ccccc2)C1C=Cc1ccccc1 (single isomer, unassigned) [Example 110] | vasopressin V1a antagonists | 9.57 | – | –
O=C(NCc1cccc(C(F)(F)F)c1)C(CCC(=O)N1CCN(CCc2ccccc2)CC1)N1C(=O)C(N2C(=O)OCC2c2ccccc2)C1C=Cc1ccccc1 (single isomer, unassigned) [Example 35] | vasopressin V1a antagonists | 8.93 | – | –
O=C(NCc1cccc(C(F)(F)F)c1)[C@H](CC(=O)N1CCC(N2CCCCC2)CC1)N1C(=O)[C@@H](N2C(=O)OC[C@@H]2c2ccccc2)[C@H]1/C=C/c1ccccc1 [Example 44] | vasopressin V1a antagonists | 8.72 | – | –
O=C(NCc1cccc(C(F)(F)F)c1)[C@@H](CC(=O)N1CCC(N2CCCCC2)CC1)N1C(=O)[C@@H](N2C(=O)OC[C@@H]2c2ccccc2)[C@H]1/C=C/c1ccccc1 [Example 133] | vasopressin V1a antagonists | 8.83 | – | –
O=C(NCc1cccc(C(F)(F)F)c1)[C@H](CCC(=O)N1CCC(N2CCCCC2)CC1)N1C(=O)[C@@H](N2C(=O)OC[C@@H]2c2ccccc2)[C@H]1/C=C/c1ccccc1 [Example 88] | vasopressin V1a antagonists | 8.84 | 2.4 nM | –
CCCCN1CCN(C(=O)CC[C@@H](C(=O)NCc2cccc(C(F)(F)F)c2)N2C(=O)[C@@H](N3C(=O)OC[C@@H]3c3ccccc3)[C@H]2/C(Cl)=C/c2ccccc2)CC1 [Example 229] | – | 9.03 | 1.53 nM | –
O=C(NC1(c2ccccc2)CCCC1)[C@H](CCC(=O)N1CCN(C2CCCCC2)CC1)N1C(=O)[C@@H](N2C(=O)OC[C@@H]2c2ccccc2)[C@H]1/C=C/c1ccccc1 [Example 217] | – | 8.71 | 3.17 nM | –
CN(Cc1ccccc1)C(=O)[C@H](CCC(=O)N1CCN(C2CCCCC2)CC1)N1C(=O)[C@@H](N2C(=O)OC[C@@H]2c2ccccc2)[C@H]1/C=C/c1ccccc1 [Example 196] | – | – | < 100 nM | –
CCN1CCN(C(=O)CC[C@@H](C(=O)NCc2cccc(C(F)(F)F)c2)N2C(=O)[C@@H](N3C(=O)OC[C@@H]3c3ccccc3)[C@H]2/C(Cl)=C/c2ccccc2)CC1 [Example 228] | – | 8.08 | 13.6 nM | –
O=C([C@@H](COCc1ccccc1)N1C(=O)[C@@H](N2C(=O)OC[C@@H]2c2ccccc2)[C@H]1/C=C/c1ccccc1)N1CCC(CCN2CCCCC2)CC1 [Example 233] | – | 9.47 | 0.56 nM | –
O=C(NCc1cccc(C(F)(F)F)c1)[C@H](CCC(=O)N1CCN(Cc2ccc3c(c2)OCO3)CC1)N1C(=O)[C@@H](N2C(=O)OC[C@@H]2c2ccccc2)[C@H]1/C=C/c1ccccc1 [Example 96] | – | 8.58 | – | –
O=C(NCc1cc(F)cc(C(F)(F)F)c1)[C@H](CCC(=O)N1CCN(C2CCCCC2)CC1)N1C(=O)[C@@H](N2C(=O)OC[C@@H]2c2ccccc2)[C@H]1/C=C/c1ccccc1 [Example 179] | – | – | 0.81 nM | –
COc1ccccc1C=CC1C(N2C(=O)OCC2c2ccccc2)C(=O)N1C(CC(=O)N1CCC(N2CCCCC2)CC1)C(=O)NCc1cccc(C(F)(F)F)c1 [Example 231, 2(R)-[[4-(Piperidinyl)piperidinyl]carbonylmethyl]-2-[3(S)-(4(S)-phenyloxazolidin-2-on-3-yl)-4(R)-(2′-methoxystyr-2-yl)azetidin-2-on-1-yl]acetic acid N-(3-trifluoromethylbenzyl)amide] | – | 8.43 | 6.12 nM | –
Cc1ccccc1C(C)(C)NC(=O)[C@H](CCC(=O)N1CCN(C2CCCCC2)CC1)N1C(=O)[C@@H](N2C(=O)OC[C@@H]2c2ccccc2)[C@H]1/C=C/c1ccccc1 [Example 221] | – | – | 5.1 nM | –
O=C(NCc1cccc([N+](=O)[O-])c1)[C@H](CCC(=O)N1CCN(C2CCCCC2)CC1)N1C(=O)[C@@H](N2C(=O)OC[C@@H]2c2ccccc2)[C@H]1/C=C/c1ccccc1 [Example 189] | – | 8.98 | 1.7 nM | –
COc1ccc(S(=O)(=O)N2c3ccc(Cl)cc3[C@](O)(c3ccccc3Cl)[C@@H]2C(=O)N2CCC[C@H]2C(N)=O)cc1OC [SR49059] | – | – | – | significant reduction in pain
